What was measured:
[1] = test system: capillary endothelial cells; conditions: in vitro, capillary endothelial cells plated on fibronectin-coated dishes; cited from earlier work
[2] = test system: capillary endothelial cells; assay: MTT assay, capillary endothelial cell viability; assay type: cell-based, bovine; conditions: 1 μg/ml, 3 h at 37° C., FIG. 1
Method: (§1) The capillary endothelial cells were from the laboratory stock of a non-transformed endothelial cell line from bovine adrenal medulla and maintained as previously described. Synchronized cultures (33) were treated with Tunicamycin nanoparticles (1 μg/ml) for 1 h in EMEM containing 2% fetal bovine serum (heat inactivated).
Synchronized capillary endothelial cells were incubated with Tunicamycin (1 μg/ml) alone or with 1 μg/ml of Tunicamycin nanoparticles for 3 h at 37° C. in a CO2 incubator (5% CO2 and 95% air) in 96-well microtiter plates. At the end the plates were processed for the MTT Assay. The results shown in FIG. 1 indicate that the cell viability was reduced to almost 50% (p<0.001) when treated with Tunicamycin conjugated to 20 nm or 50 nm gold particles.

[3] = test system: PERK; assay: Unfolded protein response, western blot of PERK; assay type: cell-based, bovine; conditions: FIG. 5
Method: as §1
(§2) Performed as before with 7.5% gel concentration.
(§3) It has been observed recently that Tunicamycin inhibits angiogenesis in vitro and in vivo as well as during the breast tumor progression by ER stress-mediated induction of unfolded protein response. In addition, it has also been shown that Tunicamycin gold nanoparticles inhibit capillary endothelial cell cycle progression much more effectively than native Tunicamycin. It was also evaluated if Tunicamycin gold nanoparticles would also activate the pathway that induces the unfolded protein response. The results shown in FIG. 5 indicate that Tunicamycin gold nanoparticles affect both transcription and translation.

[4] = test system: GRP-78/Bip; conditions: shown earlier; cited from earlier work
[5] = test system: CDK4; assay: Western blot of CDK4 expression in capillary endothelial cells; assay type: cell-based, bovine; conditions: 1 μg/ml, FIG. 2, for the conjugates also compared to native Tunicamycin
Method: as §1, §2
(§4) To evaluate the biochemical pathway the Tunicamycin nanoparticles are likely to interfere, their effect on the cell cycle progression has been analyzed. The cell cycle antigens have been analyzed focusing primarily on the D-type cycline and their partners because Tunicamycin causes cell cycle arrest in G1. […] Expression of cyclin D1 and its catalytic partner, i.e., CDK4 was analyzed by western blotting. […] There was a little difference with the CDK4 expression. It was higher in cells treated with 20 nm gold particles […], but they both were much reduced compared to the untreated control or cells treated with native Tunicamycin as shown in FIG. 2. p53 is a gate keeper for the cell cycle. Upon phosphorylation p53 migrates to the nucleus and activates gene transcription.

[6] = test system: cyclin D1; assay: Western blot of cyclin D1 expression in capillary endothelial cells; assay type: cell-based, bovine; conditions: 1 μg/ml, FIG. 2
Method: as §1, §2, §4

[7] = test system: p53p^ser392; assay: Western blot of p53 phosphorylated in serine392; assay type: cell-based, bovine; conditions: FIG. 3
Method: as §1, §2, §4

[8] = test system: phosphoPERK; assay: Unfolded protein response, western blot of phosphoPERK; assay type: cell-based, bovine; conditions: FIG. 5
Method: as §1, §2, §3

[9] = test system: angiogenesis; conditions: in vitro/in vivo; cited from earlier work
[10] = test system: breast tumor; conditions: athymic nude mice; cited from earlier work
[11] = test system: IRE-1; assay: Unfolded protein response, western blot of IRE-1; assay type: cell-based, bovine; conditions: FIG. 5
Method: as §1, §2, §3

Compound	formation of capillary tubes [1]	effect on capillary endothelial cell viability compared to the control [2]	PERK activation [3]	time of treatment at which ER stress is induced [4]	expression of CDK4 compared to the untreated control [5]	expression of cyclin D1 compared to the untreated control [6]	expression of p53 phosphorylated in serine392 (p53p^ser392) [7]	phosphoPERK (translational attenuator) activation [8]	angiogenesis [9]	breast tumor growth [10]	IRE-1 (transcriptional attenuator) activation [11]
OC[C@H]1NC[C@@H](O)[C@@H](O)[C@@H]1O [deoxymannojirimycin]	inhibited the formation of capillary tubes										
O[C@H]1[C@H]2[C@H](O)CCCN2C[C@H]1O [swainsonine]	did not inhibit tube formation										
Tunicamycin		does not show any effect	either had no effect or the effect is drastically reduced	3 h	enhanced	enhanced	no effect	either had no effect or the effect is drastically reduced	inhibit angiogenesis	reduce the breast tumor growth	either had no effect or the effect is drastically reduced
